Measured values taken from patent US8802597B2, “Herbicidal pyrimidines” (E I du Pont de Nemours and Company, priority 2003, dated 2014).

What was measured:
Test in all cases: Test C pre/postemergence
Assay type in all cases: in vivo
[1] = tested on: giant foxtail (Setaria faberii); details: for Foxtail, Giant plant response rating: scale 0 to 100 (0 no effect, 100 complete control)
Summary of the method: (§1)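 Injury scored visually 12–14 days after application on 0–100 scale (100 = complete control), relative to controls. Compounds, formulated with surfactant in non-phytotoxic solvent, applied to soil at planting (pre) or to 1- to 4-leaf plants 2–18 cm tall (post) in greenhouse.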

[2] = tested on: morningglory (Ipomoea coccinea); details: for Morningglory plant response rating: scale 0 to 100 (0 no effect, 100 complete control)
Summary of the method: as §1

[3] = tested on: common (oilseed) sunflower (Helianthus annuus); details: Preemergence
Summary of the method: as §1

[4] = tested on: pigweed (Amaranthus retroflexus); details: for Pigweed plant response rating: scale 0 to 100 (0 no effect, 100 complete control)
Summary of the method: as §1

[5] = tested on: common ragweed (Ambrosia elatior); details: for Ragweed plant response rating: scale 0 to 100 (0 no effect, 100 complete control)
Summary of the method: as §1

[6] = tested on: crabgrass (Digitaria sanguinalis); details: for Crabgrass plant response rating: scale 0 to 100 (0 no effect, 100 complete control)
Summary of the method: as §1

[7] = tested on: velvetleaf (Abutilon theophrasti); details: for Velvetleaf plant response rating: scale 0 to 100 (0 no effect, 100 complete control)
Summary of the method: as §1

[8] = tested on: cocklebur (Xanthium strumarium); details: for Cocklebur plant response rating: scale 0 to 100 (0 no effect, 100 complete control)
Summary of the method: as §1

[9] = tested on: woolly cupgrass (Eriochloa villosa); details: for Cupgrass, Woolly plant response rating: scale 0 to 100 (0 no effect, 100 complete control)
Summary of the method: as §1

[10] = tested on: eastern black nightshade (Solanum ptycanthum); details: Preemergence
Summary of the method: as §1

[11] = tested on: yellow nutsedge (Cyperus esculentus); details: for Nutsedge, Yellow plant response rating: scale 0 to 100 (0 no effect, 100 complete control)
Summary of the method: as §1

kochia (Kochia scoparia) = details: for Kochia plant response rating: scale 0 to 100 (0 no effect, 100 complete control)
Summary of the method: as §1

[12] = Postemergence, 250 g ai/ha, scale 0 to 100
[13] = Preemergence, 31 g ai/ha, scale 0 to 100, 0 no effect, 100 complete control
[14] = Preemergence, 62 g ai/ha, scale 0 to 100, 0 no effect, 100 complete control
[15] = Preemergence, 125 g ai/ha, scale 0 to 100
[16] = Preemergence, 250 g ai/ha, scale 0 to 100
[17] = 31 g ai/ha, scale 0 to 100, 0 no effect, 100 complete control
[18] = 62 g ai/ha, scale 0 to 100, 0 no effect, 100 complete control
[19] = Preemergence, 16 g ai/ha, scale 0 to 100, 0 no effect, 100 complete control
[20] = 16 g ai/ha, scale 0 to 100, 0 no effect, 100 complete control

CC(C)COC(=O)c1nc(C2CC2)nc(N)c1Br [Compound 17]
65: Pigweed plant response rating ([4]; Postemergence, 62 g ai/ha) | Plant response rating (scale of 0 to 100), Ragweed ([5]; Postemergence, 31 g ai/ha) | Plant response rating, Crabgrass [6, 12]
95: Plant response rating (scale of 0 to 100), Morningglory ([2]; Postemergence, 31 g ai/ha) | Morningglory plant response rating ([2]; Postemergence, 62 g ai/ha) | Plant response rating, Morningglory [2, 14] | Plant response rating, Sunflower [3, 18] | Plant response rating, Pigweed [4, 12] | Plant response rating, Pigweed [4, 13] | Ragweed plant response rating ([5]; Postemergence, 125 g ai/ha) | Plant response rating, Ragweed [5, 12] | Plant response rating, Ragweed [5, 15] | Plant response rating, Velvetleaf [7, 12] | Plant response rating (scale of 0 to 100), Cocklebur ([8]; Postemergence, 31 g ai/ha) | Plant response rating, Cocklebur [8, 15] | Plant response rating, Nightshade ([10]; 125 g ai/ha, scale 0 to 100)
50: Velvetleaf plant response rating ([7]; Postemergence, 62 g ai/ha)
0: Plant response rating (scale of 0 to 100), Foxtail, Giant ([1]; Postemergence, 31 g ai/ha) | Foxtail, Giant plant response rating ([1]; Postemergence, 62 g ai/ha) | Foxtail, Giant plant response rating ([1]; Postemergence, 125 g ai/ha) | Plant response rating, Foxtail, Giant [1, 13] | Plant response rating, Foxtail, Giant [1, 14] | Plant response rating (scale of 0 to 100), Crabgrass ([6]; Postemergence, 31 g ai/ha) | Crabgrass plant response rating ([6]; Postemergence, 62 g ai/ha) | Plant response rating, Crabgrass [6, 13] | Plant response rating, Crabgrass [6, 14] | Plant response rating (scale of 0 to 100), Cupgrass, Woolly ([9]; Postemergence, 31 g ai/ha) | Cupgrass, Woolly plant response rating ([9]; Postemergence, 62 g ai/ha) | Cupgrass, Woolly plant response rating ([9]; Postemergence, 125 g ai/ha) | Plant response rating, Cupgrass, Woolly [9, 13] | Plant response rating, Cupgrass, Woolly [9, 14] | Plant response rating (scale of 0 to 100), Nutsedge, Yellow ([11]; Postemergence, 31 g ai/ha) | Nutsedge, Yellow plant response rating ([11]; Postemergence, 62 g ai/ha) | Nutsedge, Yellow plant response rating ([11]; Postemergence, 125 g ai/ha) | Plant response rating, Nutsedge, Yellow [11, 12] | Plant response rating, Nutsedge, Yellow [11, 13] | Plant response rating, Nutsedge, Yellow [11, 14] | Plant response rating, Nutsedge, Yellow [11, 15] | Plant response rating, Nutsedge, Yellow [11, 16] | Plant response rating, Kochia (kochia (Kochia scoparia); [13]) | Plant response rating, Kochia (kochia (Kochia scoparia); [14])
45: Plant response rating (scale of 0 to 100), Pigweed ([4]; Postemergence, 31 g ai/ha)
25: Plant response rating (scale of 0 to 100), Velvetleaf ([7]; Postemergence, 31 g ai/ha) | Plant response rating, Kochia (kochia (Kochia scoparia); [15])
60: Plant response rating, Sunflower [3, 17]
20: Plant response rating, Foxtail, Giant [1, 15] | Crabgrass plant response rating ([6]; Postemergence, 125 g ai/ha) | Plant response rating, Crabgrass [6, 15] | Plant response rating, Velvetleaf [7, 13] | Plant response rating, Cupgrass, Woolly [9, 12] | Plant response rating, Cupgrass, Woolly [9, 15]
75: Plant response rating, Foxtail, Giant [1, 16] | Pigweed plant response rating ([4]; Postemergence, 125 g ai/ha) | Plant response rating, Cocklebur [8, 13]
35: Plant response rating, Foxtail, Giant [1, 12]
70: Plant response rating, Morningglory [2, 13] | Plant response rating, Ragweed [5, 13]
80: Plant response rating, Ragweed [5, 14] | Plant response rating, Crabgrass [6, 16] | Velvetleaf plant response rating ([7]; Postemergence, 125 g ai/ha) | Plant response rating, Velvetleaf [7, 14] | Plant response rating, Nightshade [10, 18]
100: Morningglory plant response rating ([2]; Postemergence, 125 g ai/ha) | Plant response rating, Morningglory [2, 12] | Plant response rating, Morningglory [2, 15] | Plant response rating, Morningglory [2, 16] | Plant response rating, Sunflower ([3]; 125 g ai/ha, scale 0 to 100) | Plant response rating, Sunflower ([3]; 250 g ai/ha, scale 0 to 100) | Plant response rating, Pigweed [4, 14] | Plant response rating, Pigweed [4, 15] | Plant response rating, Pigweed [4, 16] | Plant response rating, Ragweed [5, 16] | Plant response rating, Velvetleaf [7, 15] | Plant response rating, Velvetleaf [7, 16] | Cocklebur plant response rating ([8]; Postemergence, 62 g ai/ha) | Cocklebur plant response rating ([8]; Postemergence, 125 g ai/ha) | Plant response rating, Cocklebur [8, 12] | Plant response rating, Cocklebur [8, 16] | Plant response rating, Nightshade ([10]; 250 g ai/ha, scale 0 to 100) | Plant response rating (scale of 0 to 100), Kochia (kochia (Kochia scoparia); Postemergence, 31 g ai/ha) | Kochia plant response rating (kochia (Kochia scoparia); Postemergence, 62 g ai/ha) | Kochia plant response rating (kochia (Kochia scoparia); Postemergence, 125 g ai/ha) | Plant response rating, Kochia (kochia (Kochia scoparia); [12])
85: Ragweed plant response rating ([5]; Postemergence, 62 g ai/ha) | Plant response rating, Cupgrass, Woolly [9, 16] | Plant response rating, Kochia (kochia (Kochia scoparia); [16])
90: Plant response rating, Cocklebur [8, 14]

COC(=O)c1nc(C2CC2)nc(N=CN(C)C)c1Br [Compound 19]
95: Plant response rating, Pigweed [4, 15]
30: Plant response rating (scale of 0 to 100), Velvetleaf ([7]; Postemergence, 16 g ai/ha) | Plant response rating, Cocklebur [8, 13]
50: Plant response rating (scale of 0 to 100), Pigweed ([4]; Postemergence, 16 g ai/ha) | Plant response rating (scale of 0 to 100), Pigweed ([4]; Postemergence, 31 g ai/ha) | Velvetleaf plant response rating ([7]; Postemergence, 62 g ai/ha) | Cocklebur plant response rating ([8]; Postemergence, 62 g ai/ha)
5: Plant response rating (scale of 0 to 100), Foxtail, Giant ([1]; Postemergence, 31 g ai/ha)
20: Plant response rating (scale of 0 to 100), Crabgrass ([6]; Postemergence, 16 g ai/ha)
90: Plant response rating, Morningglory [2, 14] | Plant response rating, Morningglory [2, 15] | Plant response rating, Sunflower ([3]; 125 g ai/ha, scale 0 to 100) | Cocklebur plant response rating ([8]; Postemergence, 125 g ai/ha) | Plant response rating (scale of 0 to 100), Kochia (kochia (Kochia scoparia); Postemergence, 31 g ai/ha) | Kochia plant response rating (kochia (Kochia scoparia); Postemergence, 62 g ai/ha) | Kochia plant response rating (kochia (Kochia scoparia); Postemergence, 125 g ai/ha) | Plant response rating, Kochia (kochia (Kochia scoparia); [15])
70: Plant response rating, Sunflower [3, 18] | Plant response rating, Pigweed [4, 14] | Ragweed plant response rating ([5]; Postemergence, 62 g ai/ha) | Plant response rating, Ragweed [5, 14] | Crabgrass plant response rating ([6]; Postemergence, 62 g ai/ha) | Crabgrass plant response rating ([6]; Postemergence, 125 g ai/ha)
40: Foxtail, Giant plant response rating ([1]; Postemergence, 62 g ai/ha) | Plant response rating (scale of 0 to 100), Ragweed ([5]; Postemergence, 31 g ai/ha) | Plant response rating (scale of 0 to 100), Crabgrass ([6]; Postemergence, 31 g ai/ha) | Plant response rating (scale of 0 to 100), Velvetleaf ([7]; Postemergence, 31 g ai/ha) | Plant response rating, Velvetleaf [7, 14] | Plant response rating, Nightshade [10, 17]
60: Velvetleaf plant response rating ([7]; Postemergence, 125 g ai/ha)
35: Plant response rating, Pigweed [4, 19] | Plant response rating (scale of 0 to 100), Ragweed ([5]; Postemergence, 16 g ai/ha) | Plant response rating, Velvetleaf [7, 13] | Plant response rating, Kochia (kochia (Kochia scoparia); [19])
55: Foxtail, Giant plant response rating ([1]; Postemergence, 125 g ai/ha) | Plant response rating (scale of 0 to 100), Morningglory ([2]; Postemergence, 31 g ai/ha) | Plant response rating, Ragweed [5, 19] | Plant response rating, Ragweed [5, 13]
65: Pigweed plant response rating ([4]; Postemergence, 62 g ai/ha) | Pigweed plant response rating ([4]; Postemergence, 125 g ai/ha) | Plant response rating, Velvetleaf [7, 15] | Plant response rating, Cocklebur [8, 14] | Cupgrass, Woolly plant response rating ([9]; Postemergence, 62 g ai/ha) | Cupgrass, Woolly plant response rating ([9]; Postemergence, 125 g ai/ha)
15: Plant response rating, Cocklebur [8, 19]
10: Plant response rating, Morningglory [2, 19] | Plant response rating, Morningglory [2, 13] | Plant response rating, Sunflower [3, 20]
85: Morningglory plant response rating ([2]; Postemergence, 125 g ai/ha) | Plant response rating, Kochia (kochia (Kochia scoparia); [14])
25: Plant response rating, Sunflower [3, 17] | Plant response rating, Velvetleaf [7, 19] | Plant response rating (scale of 0 to 100), Cocklebur ([8]; Postemergence, 16 g ai/ha) | Plant response rating (scale of 0 to 100), Cocklebur ([8]; Postemergence, 31 g ai/ha) | Plant response rating (scale of 0 to 100), Cupgrass, Woolly ([9]; Postemergence, 31 g ai/ha)
45: Plant response rating, Pigweed [4, 13]
0: Plant response rating (scale of 0 to 100), Foxtail, Giant ([1]; Postemergence, 16 g ai/ha) | Plant response rating, Foxtail, Giant [1, 19] | Plant response rating, Foxtail, Giant [1, 13] | Plant response rating, Foxtail, Giant [1, 14] | Plant response rating, Foxtail, Giant [1, 15] | Plant response rating, Crabgrass [6, 19] | Plant response rating, Crabgrass [6, 13] | Plant response rating, Crabgrass [6, 14] | Plant response rating, Crabgrass [6, 15] | Plant response rating (scale of 0 to 100), Cupgrass, Woolly ([9]; Postemergence, 16 g ai/ha) | Plant response rating, Cupgrass, Woolly [9, 19] | Plant response rating, Cupgrass, Woolly [9, 13] | Plant response rating, Cupgrass, Woolly [9, 14] | Plant response rating, Cupgrass, Woolly [9, 15] | Plant response rating, Nightshade [10, 20] | Plant response rating (scale of 0 to 100), Nutsedge, Yellow ([11]; Postemergence, 16 g ai/ha) | Plant response rating (scale of 0 to 100), Nutsedge, Yellow ([11]; Postemergence, 31 g ai/ha) | Nutsedge, Yellow plant response rating ([11]; Postemergence, 62 g ai/ha) | Nutsedge, Yellow plant response rating ([11]; Postemergence, 125 g ai/ha) | Plant response rating, Nutsedge, Yellow [11, 19] | Plant response rating, Nutsedge, Yellow [11, 13] | Plant response rating, Nutsedge, Yellow [11, 14] | Plant response rating, Nutsedge, Yellow [11, 15]
80: Morningglory plant response rating ([2]; Postemergence, 62 g ai/ha) | Ragweed plant response rating ([5]; Postemergence, 125 g ai/ha) | Plant response rating, Ragweed [5, 15] | Plant response rating, Cocklebur [8, 15] | Plant response rating (scale of 0 to 100), Kochia (kochia (Kochia scoparia); Postemergence, 16 g ai/ha)
100: Plant response rating, Nightshade [10, 18] | Plant response rating, Nightshade ([10]; 125 g ai/ha, scale 0 to 100)
